Measured values from PubChem BioAssay AID1996.
Converted amounts (≈) assume the structure as drawn.

conditions: buffer; pH 7.4; 200.0 µM

| SMILES | solubility kinetic |
| --- | --- |
| Cc1cc(C(=O)COc2cc(F)ccc2[N+](=O)[O-])c(C)n1CC1CCCO1 (centres undefined) | 34.4 µg/mL (≈ 91.4 µM) |
| CCCCn1c(=S)[nH]c2ccc(N3CCOCC3)cc2c1=O | 4.3 µg/mL (≈ 13.5 µM) |
| CCC1(C)CC(=O)N(c2ccc(F)c(Cl)c2)C(=O)C1 | 14 µg/mL (≈ 49.3 µM) |
| CSc1nc2ccccc2c(=O)n1C1CCOC(C)(C)C1 (centres undefined) | 28.4 µg/mL (≈ 93.3 µM) |
| Cc1cc(C)cc(CC2CC(=O)N(c3cc(C)ccc3C)C2=O)c1 (centres undefined) | 17.5 µg/mL (≈ 54.4 µM) |
| COC(=O)C1SCCN1S(=O)(=O)c1ccc(Cl)cc1 (centres undefined) | > 48.3 µg/mL |
| COc1ccc(CCC(=O)OCC(=O)NC(=O)c2ccc(Cl)cc2)cc1 | 7.2 µg/mL (≈ 19.2 µM) |
| Cn1c(=NC(=O)c2cccc([N+](=O)[O-])c2)sc2ccccc21 | < 0.2 µg/mL |
| Cc1cc(SCC(=O)NCC2CCCO2)nc2ccccc12 (centres undefined) | > 47.5 µg/mL |
| Cn1nccc1C(=O)NC1CCN(Cc2ccccc2)CC1 | > 44.8 µg/mL |
| OC1(c2ccc(F)cc2)CCN(Cc2cccnc2)CC1 | > 43 µg/mL |
| Cc1cc(C)cc(NC(=S)NC2CC3CCCC(C2)N3C2CC2)c1 (centres undefined) | > 51.5 µg/mL |
| COc1ccc(C(=O)NCCc2cnc[nH]2)cc1OC | > 41.3 µg/mL |
| O=C1CCC(C(=O)Nc2ccc(Cl)cc2)N1 (centres undefined) | > 35.8 µg/mL |
| CC(Cc1cccs1)NCc1ccc(Cl)cc1 (centres undefined) | 22.6 µg/mL (≈ 85 µM) |
| CN(C)c1nc(N(C)C)nc(N2CC(=O)N(c3ccccc3)C2=N)n1 | 8.4 µg/mL (≈ 24.7 µM) |
| N#Cc1ccc(CN2CCN(C(=O)C3CC(=O)N(c4ccccc4F)C3)CC2)cc1 (centres undefined) | > 61 µg/mL |
| O=C(O)c1cccc(S(=O)(=O)Nc2ccc(Oc3ccccc3)cc2)c1 | > 55.4 µg/mL |
| C#CCOc1ccccc1/C=C1/C(=O)ON=C1C | 34.9 µg/mL (≈ 145 µM) |
| COc1ccc(NC(=O)COC(=O)CCc2ccc(S(=O)(=O)N3CCOCC3)cc2)c(OC)c1 | 11 µg/mL (≈ 22.3 µM) |
| C=CCn1cccc(C(=O)Nc2ccc(N(C)C)cc2)c1=O | > 44.6 µg/mL |
| O=c1[nH]c(=S)[nH]cc1S(=O)(=O)c1cccc(Cl)c1 | > 45.4 µg/mL |
| Cc1cc(NC(=O)CSc2nc3ccccc3n2CCC#N)no1 | 7.7 µg/mL (≈ 22.6 µM) |
| O=C(Nc1ccc(-c2ccccc2)cc1)c1ccccc1 | 1 µg/mL (≈ 3.66 µM) |

| SMILES | solubility kinetic |
| --- | --- |
| CCc1ccc(OC)c(S(=O)(=O)NCc2cccs2)c1 | > 46.7 µg/mL |
| CCc1noc(C)c1C(=O)Nc1ccc(C#N)cc1 | > 38.3 µg/mL |
| O=C(/C=C/c1ccco1)c1cccnc1 | 23.8 µg/mL (≈ 119 µM) |
| C=CCn1c(NCc2ccccc2OC)nc2ccccc21 | 30.2 µg/mL (≈ 103 µM) |
| O=C(C1COc2ccccc2O1)N1CCN(c2ccc([N+](=O)[O-])cc2)CC1 (centres undefined) | 7.7 µg/mL (≈ 20.8 µM) |
| O=C(Cc1csc(-c2ccccc2)n1)NCC(=O)Nc1ccc(F)c(F)c1F | 9 µg/mL (≈ 22.2 µM) |
| Cn1c(=O)n(Cc2ccccc2)c(=O)c2c1nc1n2CCN1Cc1ccco1 | 51.8 µg/mL (≈ 137 µM) |
| CCC1(c2ccc(Cl)cc2)NC(=O)N(CC(=O)N2CCN(C(=O)c3ccco3)CC2)C1=O (centres undefined) | > 68.8 µg/mL |
| C(/C=C/c1ccccn1)=C\c1ccccc1 | 0.7 µg/mL (≈ 3.38 µM) |
| Cc1cccc(-c2noc(-c3ccc4c(c3)OCO4)n2)c1 | < 0.3 µg/mL |
| CC(C)N(Cc1ccccc1)C(=S)NCc1ccccc1 | 19.4 µg/mL (≈ 65 µM) |
| COc1cccc(C2C([N+](=O)[O-])=C(N)Oc3cc(C)oc(=O)c32)c1 (centres undefined) | > 49.5 µg/mL |
| COc1ccc(CCC(=O)Nc2nccs2)cc1OC | > 43.9 µg/mL |
| Cc1cc2ccccn2c1C(=O)c1ccccc1F | 12.5 µg/mL (≈ 49.4 µM) |
| Oc1ccc(-c2cn3ccccc3n2)cc1O | 24 µg/mL (≈ 106 µM) |
| Cc1ccc(C(=O)Nc2ccc(C(F)(F)F)n(C)c2=O)cc1 | 2.1 µg/mL (≈ 6.77 µM) |
| O=C(CSc1ccccc1C(=O)O)NCc1ccccc1 | 44 µg/mL (≈ 146 µM) |
| Cc1cccc(C)c1NC(=O)C(C)N1CCCCC1 (centres undefined) | 38.3 µg/mL (≈ 147 µM) |
| N#C/C(=C(/O)c1ccco1)c1nc2ccccc2s1 | > 40.2 µg/mL |
| CCN(C(=O)Cn1c(Cl)nc2c1c(=O)n(C)c(=O)n2C)C1CCCCC1 | > 57.3 µg/mL |
| CC(=Nc1ccccc1C(F)(F)F)c1ccncc1 | < 0.3 µg/mL |
| Cc1cnc(C(=O)Nc2ccc(OC(F)(F)F)cc2)cn1 | 2.6 µg/mL (≈ 8.75 µM) |
| C/C(=N\NC(=O)c1ccc(Cl)cc1)c1ccccn1 | > 41.1 µg/mL |
| O=[N+]([O-])c1ccc(SCc2ccncc2)nc1 | 30.5 µg/mL (≈ 123 µM) |

| SMILES | solubility kinetic |
| --- | --- |
| N=c1c2ccccc2nc2n1CCCCCCCCCCC2 | 34.6 µg/mL (≈ 116 µM) |
| COc1ccccc1CNc1cncnc1 | 28.2 µg/mL (≈ 131 µM) |
| Cc1cccc(N2CCN(C(=O)c3ccc(NC(=O)CC4SC(N5CCCC5)=NC4=O)cc3)CC2)c1C (centres undefined) | 30.3 µg/mL (≈ 58.3 µM) |
| Cc1ccc(SCCSc2nc(C)cc(=O)[nH]2)cc1 | 2.1 µg/mL (≈ 7.18 µM) |
| CC1(C)CC2(C)OC(=N)C1(C#N)C2(C#N)C#N (centres undefined) | 34 µg/mL (≈ 149 µM) |
| CCCCN1C(=O)N(C)C2NC(=S)NC21 (centres undefined) | > 34.2 µg/mL |
| COc1ccc(C(=O)N2CCN(CC(=O)N3CCOCC3)CC2)cc1 | 40.6 µg/mL (≈ 117 µM) |
| O=C(O)COCC(=O)N1CCCN(c2nc3ccc(Cl)cc3s2)CC1 | > 57.6 µg/mL |
| COc1ccccc1CC(=O)N(Cc1ccccc1)c1ccc(C)cc1 | 10 µg/mL (≈ 28.9 µM) |
| O=C(COC(=O)c1ccc2c(c1)OCO2)NC1CCCCC1 | 18.4 µg/mL (≈ 60.3 µM) |
| O=C(NCc1ccccc1Cl)[C@@H]1CCCN1S(=O)(=O)c1ccc(Cl)cc1 | 38.4 µg/mL (≈ 92.9 µM) |
| Cc1ccc(C(=O)OCC(=O)NC(C)c2ccccc2)cc1C (centres undefined) | 1.1 µg/mL (≈ 3.53 µM) |
| O=C(Nc1cccnc1)c1cccc(S(=O)(=O)N2CCCCC2)c1 | > 51.8 µg/mL |
| Cc1cc(C)c(NC(=S)NC(CO)(CO)CO)c(C)c1 | > 44.8 µg/mL |
| COc1ccc(C(=O)O/N=C(\N)Cc2cccs2)cc1OC | > 48.1 µg/mL |
| Cc1ccc(NC(=O)c2ccccc2NC(=O)c2cccnc2)cc1 | < 0.2 µg/mL |
| O=C1CN(C(=O)CNC(=O)c2ccc(Cl)cc2Cl)CCN1 | 47.4 µg/mL (≈ 144 µM) |
| CC(C(=O)OCC(=O)c1ccccc1)N1C(=O)C2C3CCC(C3)C2C1=O (centres undefined) | > 53.3 µg/mL |
| COc1ccc(C(=O)Nc2ccc(NC(=O)C3CC3)cn2)cc1 | 5.8 µg/mL (≈ 18.6 µM) |
| CC(N)Cc1cn(Cc2ccccc2)c2ccccc12.Cl (centres undefined) | > 45.1 µg/mL |
| CCN1CCN(S(=O)(=O)Cc2ccccc2Cl)CC1 | > 45.4 µg/mL |
| CN(Cc1ccccc1)C(=O)COC(=O)/C=C/c1ccc2c(c1)OCO2 | 22.3 µg/mL (≈ 63.1 µM) |
| O=C(c1cc2cc(F)ccc2[nH]1)N1CCC(Cc2ccccc2)CC1 | 1.3 µg/mL (≈ 3.86 µM) |
| COc1ccccc1C(C)NC(=O)c1ccc(S(=O)(=O)NCc2ccco2)cc1 (centres undefined) | 12.6 µg/mL (≈ 30.4 µM) |

| SMILES | solubility kinetic |
| --- | --- |
| O=C(O)CNc1nc(-c2ccccc2)nc2c1oc1ccccc12 | > 47.9 µg/mL |
| CCC(=O)c1ccc(OCC(O)CNC2CCCC2)cc1 (centres undefined) | 35.6 µg/mL (≈ 122 µM) |
| CC(C)[C@H](Nc1ncnc2c1oc1ccccc12)C(=O)O | > 42.8 µg/mL |
| CC(C)OCC(O)CN1CCC(Cc2ccccc2)CC1.Cl (centres undefined) | > 49.2 µg/mL |
| CCN(CC)c1ccc(NC(=O)Nc2ccccc2)cc1 | 4.1 µg/mL (≈ 14.5 µM) |
| Cc1ccc(S(=O)(=O)N2CCN(Cc3cccnc3)CC2)cc1 | > 49.7 µg/mL |
| CCOC(=O)N1CCN(C(=O)/C=C/c2ccc(OC)c(OC)c2)CC1 | 51.5 µg/mL (≈ 148 µM) |
| N#Cc1cccc(NC(=O)CSc2cccc[n+]2[O-])c1 | > 42.8 µg/mL |
| Cl.Clc1cccc(Cl)c1CSc1nnc([C@@H]2CCCN2)o1 | > 55 µg/mL |
| CNc1nccc(-c2ccc(Cl)cc2)c1C#N | 1.5 µg/mL (≈ 6.16 µM) |
| Cn1c(SCC(=O)N2CCCC2=O)nc2ccccc2c1=O | 13.2 µg/mL (≈ 41.6 µM) |
| Cc1cc(Nc2ccccc2Cl)nc(-c2ccccc2O)n1 | 1.3 µg/mL (≈ 4.17 µM) |
| Cc1cc2cc(C#N)c(SCC(=O)Nc3nonc3C)nc2cc1C | 0.3 µg/mL (≈ 0.849 µM) |
| O=C(COc1ccc(Cl)cc1Cl)OCC(=O)c1ccc[nH]1 | 8.2 µg/mL (≈ 25 µM) |
| CCc1ccc(OCC2Cn3c(nc4c3c(=O)[nH]c(=O)n4C)O2)cc1 (centres undefined) | 3.8 µg/mL (≈ 11.1 µM) |
| Cc1ccc(OCCCCN2CCCCC2)c(C)c1 | 19.6 µg/mL (≈ 75 µM) |
| CCC(CC)NC(=O)c1cccc(Oc2ccccc2)c1 | 5.2 µg/mL (≈ 18.4 µM) |
| Cc1ccc(C)c(CN2CCSCC2)c1 | 2.1 µg/mL (≈ 9.49 µM) |
| O=C(Cc1ccccc1)c1c[nH]c(C(=O)NC2CCCC2)c1 | 2.6 µg/mL (≈ 8.77 µM) |
| CCOc1ccc(C(C)=O)cc1CN1C(=O)C(=O)N(CC)C1=O | 41.5 µg/mL (≈ 130 µM) |
| CCCc1ccc(C(=O)O/N=C(\N)c2ccccn2)cc1 | 3.1 µg/mL (≈ 10.9 µM) |
| Cc1ccc(SCC(=O)Nc2cc(S(=O)(=O)N3CCCCC3)ccc2C)cc1 | 9.9 µg/mL (≈ 23.7 µM) |
| Nc1ccc(-n2cc(-c3ccccc3)[nH]c2=S)cc1 | 12.6 µg/mL (≈ 47.1 µM) |
| N#CCCN=C(NS(=O)(=O)c1ccccc1)c1ccccc1 | > 47 µg/mL |

| SMILES | solubility kinetic |
| --- | --- |
| O=C(Nc1nc2ccc(Br)cc2s1)c1ccco1 | < 0.3 µg/mL |
| CCCOc1ccc(N2C(=O)C3C4C=CC(CC4)C3C2=O)cc1 (centres undefined) | 4.6 µg/mL (≈ 14.8 µM) |
| COc1ccccc1CNCCc1ccc(F)cc1.O=C(O)C(=O)O | > 52.4 µg/mL |
| NS(=O)(=O)c1ccc(CCNC(=O)c2ccc(Cl)s2)cc1 | 10.6 µg/mL (≈ 30.7 µM) |
| CCc1cccc(NC(=O)C2CC2c2ccccc2)c1 (centres undefined) | 0.7 µg/mL (≈ 2.64 µM) |
| CC1CCCC(C)N1C(=O)COC(=O)Cc1ccc(Cl)cc1 (centres undefined) | > 48.6 µg/mL |
| CC(C)Oc1ccccc1/C=N/NC(=O)C1CC1 | > 36.9 µg/mL |
| CC(C)Sc1sc(C(=O)O)c(-c2ccc(Cl)cc2)c1C#N | > 50.7 µg/mL |
| CCOc1ccc2nc(SCC(=O)NC3CC3)sc2c1 | 13.1 µg/mL (≈ 42.5 µM) |
| O=C(NC1CCSc2ccccc21)c1ccc(C(F)(F)F)cc1 (centres undefined) | < 0.7 µg/mL |
| O=C(c1cnc2ccccc2n1)N1CCN(c2ccc(C(F)(F)F)cn2)CC1 | 1 µg/mL (≈ 2.58 µM) |
| CC(C)Cn1c(=O)[nH]c(=O)c2c(C(F)(F)F)cc(-c3ccccc3)nc21 | < 0.3 µg/mL |
| O=C(Cc1c[nH]c2ccccc12)Nc1ccc(N2CCOCC2)cc1 | 10.1 µg/mL (≈ 30.1 µM) |
| O=C(CSc1nccc(=O)[nH]1)NC1CCCC1 | 36 µg/mL (≈ 142 µM) |
| CC(=O)c1c(C)[nH]c(C(=O)NNC(=O)c2ccc(C)cc2)c1C | > 47 µg/mL |
| CN(C)c1ccc(CCc2ccc(N)cc2)cc1 | 21 µg/mL (≈ 87.4 µM) |
| CC(=O)Nc1ccc(NC(=O)CCc2ccc(C)o2)cc1 | > 42.9 µg/mL |
| COc1cc(OC)cc(C(=O)Nc2ccc(Nc3ccccc3)cc2)c1 | 2.5 µg/mL (≈ 7.18 µM) |
| COc1ccc(C(=O)Nc2ccc(N3CCN(C)CC3)cc2)cc1 | 42.7 µg/mL (≈ 131 µM) |
| N/C(COc1ccc(Cl)cc1Cl)=N\O | 28.8 µg/mL (≈ 123 µM) |
| COc1ccc(NC(C)=O)cc1NC(=O)c1ccc(Cl)cc1 | 17.2 µg/mL (≈ 54 µM) |
| CCCCn1c(N)c(N(CC)C(=O)c2cccc(F)c2)c(=O)[nH]c1=O | 52.1 µg/mL (≈ 150 µM) |
| O=C(NCCNc1ccc([N+](=O)[O-])cc1)c1ccc(Cl)cc1 | 1.9 µg/mL (≈ 5.94 µM) |
